Data published in PMC8815882, “Screening the pandemic response box identified benzimidazole carbamates, Olorofim and ravuconazole as promising drug candidates for the treatment of eumycetoma” (PLoS Neglected Tropical Diseases, 2022).
Values after ≈ are worked out from the molar mass of the structure shown. Where two headings read alike, the source gives them in different places.

Tests used:
[1] = tested on: M. tropicana strain CBS206.47; experiment: CLSI M38-A2 based in vitro susceptibility screening at 25 μM; format: cell-based, Madurella tropicana; settings: selected if >75% (resazurin) or >80% (XTT) fungal growth inhibited
[2] = tested on: M. pseudomycetomatis strain Mex2A; experiment: as above; format: cell-based, Madurella pseudomycetomatis; settings: selected if >75% (resazurin) or >80% (XTT) fungal growth inhibited
[3] = tested on: ten different M. mycetomatis isolates; experiment: MIC / MIC50 determination (XTT) in ten M. mycetomatis isolates; format: cell-based, Madurella mycetomatis; settings: Madurella mycetomatis
[4] = tested on: F. senegalensis strain CBS132257; experiment: CLSI M38-A2 based in vitro susceptibility screening at 25 μM; format: cell-based, Falciformispora senegalensis; settings: selected if >75% (resazurin) or >80% (XTT) fungal growth inhibited
M. mycetomatis MM55 = experiment: IC50 determination, 2-fold dilution series 16 to 0.03125 μM; format: cell-based, Madurella mycetomatis; settings: for IC50 / IC90: Madurella mycetomatis
[5] = tested on: Me. romeroi strain CBS128765; experiment: CLSI M38-A2 based in vitro susceptibility screening at 25 μM; format: cell-based, Medicopsis romeroi; settings: selected if >75% (resazurin) or >80% (XTT) fungal growth inhibited
[6] = tested on: M. mycetomatis genome strain MM55; experiment: CLSI M38-A2 based in vitro susceptibility screening (XTT or resazurin), growth at fixed concentration; format: cell-based, Madurella mycetomatis; settings: for Inhibits growth of Madurella mycetomatis at 25 μM: selected if >75% (resazurin) or >80% (XTT) fungal growth inhibited
[7] = tested on: M. mycetomatis isolate MM55; experiment: M. mycetomatis grain infection model in G. mellonella larvae, survival; format: in vivo, Galleria mellonella; parameters: In vivo efficacy, Larvae survival %: concentration or dose not given beside the values
[8] = median MIC over ten M. mycetomatis isolates, no asterisk, read-out: MIC50
[9] = over the isolates tested, read-out: MIC50 mean
[10] = isolate CBS247.48, read-out: MIC CBS247.48
[11] = isolate MM55, read-out: MIC MM55
[12] = MM55, Table 2, M. mycetomatis MM55, read-out: IC50
[13] = MM55, mean, read-out: IC50 mean
[14] = MM55, replicate 1, read-out: IC50 1
[15] = MM55, replicate 1, read-out: IC90 1
[16] = MM55, replicate 2, read-out: IC50 2
[17] = MM55, replicate 2, read-out: IC90 2
[18] = MM55, replicate 3, read-out: IC50 3
[19] = MM55, replicate 3, read-out: IC90 3
[20] = Madurella mycetomatis, mean, read-out: Percentage survival at 25um, 25 uM mean
[21] = Madurella mycetomatis, replicate A, read-out: Percentage survival at 25um, 25 um A
[22] = Madurella mycetomatis, replicate B, read-out: Percentage survival at 25um, 25 uM B
[23] = Madurella mycetomatis, replicate C, read-out: Percentage survival at 25um, 25 uM C
[24] = Madurella mycetomatis, 100 uM, mean, read-out: Percentage survival at 100um, 100 uM mean
[25] = Madurella mycetomatis, 100 uM, replicate (first column), read-out: Percentage survival at 100um, 100 uM A
[26] = Madurella mycetomatis, 100 uM, replicate (second column), read-out: Percentage survival at 100um, 100 uM A
[27] = Madurella mycetomatis, 100 uM, replicate (third column), read-out: Percentage survival at 100um, 100 uM A

## COc1cc(C)c2c(Oc3cccc(C(F)(F)F)c3)c(OC)cc(NC(C)CCCN)c2n1 (centres unmarked) [MMV000043, Tafenoquine, reference compound]
[1]
  Inhibits growth of Madurella tropicana at 25 μM: inhibit the growth
[2]
  Inhibits growth of Madurella pseudomycetomatis at 25 μM: inhibit the growth
[3]; [8]
  MIC50: 4 µM (≈ 1.85 µg/mL)
[3]; [9]
  MIC50: 4 µM (≈ 1.85 µg/mL)
[3]; [10]
  MIC: 8 µM (≈ 3.71 µg/mL)
[3]; [11]
  MIC: 4 µM (≈ 1.85 µg/mL)
[3]; isolate P1, read-out: MIC P1
  MIC: 16 µM (≈ 7.42 µg/mL)
[3]; isolate So1, read-out: MIC So1
  MIC: 16 µM (≈ 7.42 µg/mL)
[3]; isolate i1, read-out: MIC i1
  MIC: 4 µM (≈ 1.85 µg/mL)
[3]; isolate i11, read-out: MIC i11
  MIC: 4 µM (≈ 1.85 µg/mL)
[4]
  Inhibits growth of Falciformispora senegalensis at 25 μM: inhibit the growth
M. mycetomatis MM55
  Drug static or cidal: Cidal
M. mycetomatis MM55; [12]
  IC50: 12.8 µM
M. mycetomatis MM55; [13]
  IC50: 12.9 µM
M. mycetomatis MM55; MM55, read-out: IC90 mean
  IC90: 23.9 µM
M. mycetomatis MM55; [14]
  IC50: 11.7 µM
M. mycetomatis MM55; [15]
  IC90: 23.5 µM
M. mycetomatis MM55; [16]
  IC50: 13.2 µM
M. mycetomatis MM55; [17]
  IC90: 23.6 µM
M. mycetomatis MM55; [18]
  IC50: 13.8 µM
M. mycetomatis MM55; [19]
  IC90: 24.7 µM
[5]
  Inhibits growth of Medicopsis romeroi at 25 μM: inhibit the growth
[6]
  Inhibits growth of Madurella mycetomatis at 25 μM: inhibit the growth
[6]; [20]
  activity at 25 µM: 0.788%
[6]; [21]
  activity at 25 µM: -2.31%
[6]; [22]
  activity at 25 µM: 0.422%
[6]; [23]
  activity at 25 µM: 4.25%
[6]; [24]
  activity at 100 µM: 22.7%
[6]; [25]
  activity at 100 µM: 53.1%
[6]; [26]
  activity at 100 µM: 6.69%
[6]; [27]
  activity at 100 µM: 8.3%

## CCC(C)NCC(O)Cn1c2ccc(Cl)cc2c2cc(Cl)ccc21 (centres unmarked) [MMV1578570]
[1]
  Inhibits growth of Madurella tropicana at 25 μM: inhibit the growth
[2]
  Inhibits growth of Madurella pseudomycetomatis at 25 μM: inhibit the growth
[4]
  Inhibits growth of Falciformispora senegalensis at 25 μM: inhibit the growth
M. mycetomatis MM55
  Drug static or cidal: Static
M. mycetomatis MM55; MM55, mean of three replicates, read-out: IC50 mean
  IC50: 17.1 µM
M. mycetomatis MM55; MM55, replicate 1, read-out: IC50 1 um
  IC50: 21.7 µM
M. mycetomatis MM55; MM55, replicate 1, read-out: IC90 1 um
  IC90: > 25 µM
M. mycetomatis MM55; MM55, replicate 2, read-out: IC50 2 um
  IC50: 17.2 µM
M. mycetomatis MM55; MM55, replicate 2, read-out: IC90 2 um
  IC90: 24.2 µM
M. mycetomatis MM55; MM55, replicate 3, read-out: IC50 3 um
  IC50: 12.5 µM
M. mycetomatis MM55; MM55, replicate 3, read-out: IC90 3 um
  IC90: 21.6 µM
[5]
  Inhibits growth of Medicopsis romeroi at 25 μM: inhibit the growth
[6]
  Inhibits growth of Madurella mycetomatis at 25 μM: inhibit the growth
[6]; Madurella mycetomatis, mean of three replicates, read-out: Percentage survival at 25um, 25 uM mean
  activity at 25 µM: 7.02%
[6]; [21]
  activity at 25 µM: 9.54%
[6]; [22]
  activity at 25 µM: -1.08%
[6]; [23]
  activity at 25 µM: 12.6%
[6]; Madurella mycetomatis, 100 uM, mean of three replicates, read-out: Percentage survival at 100um, 100 uM mean
  activity at 100 µM: 3.38%
[6]; Madurella mycetomatis, 100 uM, replicate 1, read-out: Percentage survival at 100um, 100 uM A (first replicate column)
  activity at 100 µM: 1.05%
[6]; Madurella mycetomatis, 100 uM, replicate 2, read-out: Percentage survival at 100um, 100 uM A (second replicate column)
  Percent fungal survival at 100 µM: 3.75%
[6]; Madurella mycetomatis, 100 uM, replicate 3, read-out: Percentage survival at 100um, 100 uM A (third replicate column)
  activity at 100 µM: 5.34%

## COC(=O)Nc1nc2ccc(Sc3ccccc3)cc2[nH]1 [MMV003143, Fenbendazole]
[1]
  Inhibits growth of Madurella tropicana at 25 μM: inhibit the growth
[2]
  Inhibits growth of Madurella pseudomycetomatis at 25 μM: inhibit the growth
[3]; Table 3 and Fig 5, benzimidazole carbamates, M. mycetomatis, read-out: MIC50
  MIC50: 0.5 µM (≈ 0.15 µg/mL)
[3]; [8]
  MIC50: 2 µM (≈ 0.599 µg/mL)
[3]; [9]
  MIC50: 0.5 µM (≈ 0.15 µg/mL)
[3]; [10]
  MIC: 0.5 µM (≈ 0.15 µg/mL)
[3]; isolate MM14, read-out: MIC MM14
  MIC: 0.5 µM (≈ 0.15 µg/mL)
[3]; isolate MM45, read-out: MIC MM45
  MIC: 0.5 µM (≈ 0.15 µg/mL)
[3]; [11]
  MIC: 0.5 µM (≈ 0.15 µg/mL)
[3]; isolate P1, read-out: MIC P1
  MIC: 0.5 µM (≈ 0.15 µg/mL)
[3]; isolate ParijsAl1, read-out: MIC ParijsAl1
  MIC: 0.5 µM (≈ 0.15 µg/mL)
[3]; isolate Peru72012, read-out: MIC Peru72012
  MIC: 0.5 µM (≈ 0.15 µg/mL)
[3]; isolate So1, read-out: MIC So1
  MIC: 2 µM (≈ 0.599 µg/mL)
[3]; isolate i1, read-out: MIC i1
  MIC: 0.25 µM (≈ 0.0748 µg/mL)
[3]; isolate i11, read-out: MIC i11
  MIC: 1 µM (≈ 0.299 µg/mL)
[4]
  Inhibits growth of Falciformispora senegalensis at 25 μM: inhibit the growth
[7]; 20 μM per larvae at 4, 28, 52 h after infection, day ten
  Larvae survival rate on day ten: 24.4%
[7]; 20 μM per larvae, vs infected control, day four
  Effect on larvae survival Day 4 (words): Increase survival
[7]; 20 μM per larvae, vs infected control, day ten
  Effect on larvae survival Day 10 (words): Increase survival
[7]; 20 μM per larvae, vs infected control, day ten, listed as fenbendazole
  Effect on larvae survival Day 10 (words): able to increase larvae survival
[7]; in vivo
  In vivo efficacy, Enhanced survival compared to control?: yes *
  In vivo efficacy, Larvae survival %: 24.4%
M. mycetomatis MM55
  Drug static or cidal: Static
M. mycetomatis MM55; [12]
  IC50: 2.66 µM
M. mycetomatis MM55; MM55, Table 3, benzimidazole carbamates, M. mycetomatis, read-out: IC50
  IC50: 2.66 µM
M. mycetomatis MM55; [13]
  IC50: 2.66 µM
M. mycetomatis MM55; MM55, read-out: IC90 mean
  IC90: 9.09 µM
M. mycetomatis MM55; [14]
  IC50: 2.58 µM
M. mycetomatis MM55; [15]
  IC90: 17 µM
M. mycetomatis MM55; [16]
  IC50: 2.52 µM
M. mycetomatis MM55; [17]
  IC90: 4.6 µM
M. mycetomatis MM55; [18]
  IC50: 2.88 µM
M. mycetomatis MM55; [19]
  IC90: 5.68 µM
[5]
  Inhibits growth of Medicopsis romeroi at 25 μM: inhibit the growth
[6]
  Inhibits growth of Madurella mycetomatis at 25 μM: inhibit the growth
[6]; [20]
  activity at 25 µM: 2.38%
[6]; [21]
  activity at 25 µM: -0.759%
[6]; [22]
  activity at 25 µM: 3.53%
[6]; [23]
  activity at 25 µM: 4.38%
[6]; [24]
  activity at 100 µM: 7.16%
[6]; [25]
  activity at 100 µM: 0.376%
[6]; [26]
  activity at 100 µM: 9.19%
[6]; [27]
  activity at 100 µM: 11.9%
